A value given as a limit tells only on which side of the number the result lay.

As usually defined, the EC50 is the midpoint of the concentration-response curve.

In one assay the test system is RSV A2 virus. Briefly: RSV CPE assay. As to conditions: human respiratory syncytial virus, HEp-2, 120 h, read-out: RSV A2 (Hep-2 cell) EC50.
With `CC(C)C(=O)O[C@H]1[C@@H](OC(=O)C(C)C)[C@](C#N)(c2ccc3c(N)ncnn23)O[C@@H]1COP(=O)(OCCSC(=O)C(C)(C)C)Oc1ccc(C(C)(C)C)cc1` (mixture of isomers) [Compound 27, (2R,3R,4R,5R)-2-(4-aminopyrrolo[2,1-f][1,2,4]triazin-7-yl)-5-((((4-tert-butylphenoxy)(2-(pivaloylthio)ethoxy)phosphoryl)oxy)methyl)-2-cyanotetrahydrofuran-3,4-diyl bis(2-methylpropionate)], the concentration for a half-maximal effect (EC50) was in the range of 200 to 500 nM. On the same count and under the same terms, the figure for `CCC(CC)COC(=O)C1(N[P@@](=O)(OCOC(=O)OC(C)C)OC[C@H]2O[C@@](C#N)(c3ccc4c(N)ncnn34)[C@H](OC(=O)C(C)C)[C@@H]2OC(=O)C(C)C)CCC1` [Compound 32b, (2R,3R,4R,5R)-2-(4-aminopyrrolo[2,1-f][1,2,4]triazin-7-yl)-2-cyano-5-((((S)-((1-((2-ethylbutoxy)carbonyl)cyclobutyl)amino)(((isopropoxycarbonyl)oxy)methoxy)phosphoryl)oxy)methyl)tetrahydrofuran-3,4-diyl bis(2-methylpropionate)] is 500 to 1000 nM; for `CC(C)C(=O)O[C@H]1[C@@H](OC(=O)C(C)C)[C@](C#N)(c2ccc3c(N)ncnn23)O[C@@H]1COP(=O)(OCOC(=O)C(C)(C)C)OCOC(=O)C(C)(C)C` [Compound 29, (2R,3R,4R,5R)-2-(4-aminopyrrolo[2,1-f][1,2,4]triazin-7-yl)-5-((((bis(((tert-butylcarbonyl)oxy)methoxy))phosphoryl)oxy)methyl)-2-cyanotetrahydrofuran-3,4-diyl bis(2-methylpropionate)] it is 500 to 1000 nM. Regarding `COC(C)(C)COC(=O)[C@H](Cc1ccccc1)N[P@@](=O)(OC[C@H]1O[C@@](C#N)(c2ccc3c(N)ncnn23)[C@H](OC(=O)C(C)C)[C@@H]1OC(=O)C(C)C)Oc1ccccc1` [Compound 64a, (2R,3R,4R,5R)-2-(4-aminopyrrolo[2,1-f][1,2,4]triazin-7-yl)-2-cyano-5-((((R)-(((S)-1-(2-methoxy-2-methylpropoxy)-1-oxo-3-phenylpropan-2-yl)amino)(phenoxy)phosphoryl)oxy)methyl)tetrahydrofuran-3,4-diyl bis(2-methylpropionate)], the concentration giving a half-maximal response (EC50) lay within 100 to 200 nM. On to `CCC(CC)COC(=O)C[C@H](N[P@@](=O)(OC[C@H]1O[C@@](C#N)(c2ccc3c(N)ncnn23)[C@H](OC(=O)C(C)C)[C@@H]1OC(=O)C(C)C)Oc1ccccc1)C(=O)OCC(CC)CC` [Compound 62a, (2R,3R,4R,5R)-2-(4-aminopyrrolo[2,1-f][1,2,4]triazin-7-yl)-2-cyano-5-((((R)-(((S)-1,4-bis(2-ethylbutoxy)-1,4-dioxobutan-2-yl)amino)(phenoxy)phosphoryl)oxy)methyl)tetrahydrofuran-3,4-diyl bis(2-methylpropionate)], for which the concentration for a half-maximal effect (EC50) lay within 200 to 500 nM. Consider `CCC(CC)COC(=O)[C@H](C)N[P@@](=O)(OCOC(=O)OC(C)C)OC[C@H]1O[C@@](C#N)(c2ccc3c(N)ncnn23)[C@H](OC(=O)C(C)C)[C@@H]1OC(=O)C(C)C` [Compound 7b, (2R,3R,4R,5R)-2-(4-aminopyrrolo[2,1-f][1,2,4]triazin-7-yl)-2-cyano-5-((((S)-(((S)-1-(2-ethylbutoxy)-1-oxopropan-2-yl)amino)(((isopropoxycarbonyl)oxy)methoxy)phosphoryl)oxy)methyl)tetrahydrofuran-3,4-diyl bis(2-methylpropionate)], for which the concentration for a half-maximal effect (EC50) was 100 to 200 nM. Take `CC(=O)O[C@H]1[C@@H](OC(C)=O)[C@](C#N)(c2ccc3c(N)ncnn23)O[C@@H]1COP(=O)(OCOC(=O)OC(C)C)OCOC(=O)OC(C)C` [Compound 17, (2R,3R,4R,5R)-2-(4-aminopyrrolo[2,1-f][1,2,4]triazin-7-yl)-5-((((bis(((isopropoxycarbonyl)oxy)methoxy)phosphoryl))oxy)methyl)-2-cyanotetrahydrofuran-3,4-diyl diacetate]: the 50% effective concentration (EC50) fell in the range of 100 to 200 nM.

In the case of `CCCCCOC(=O)C[C@H](N[P@](=O)(OC[C@H]1O[C@@](C#N)(c2ccc3c(N)ncnn23)[C@H](OC(=O)C(C)C)[C@@H]1OC(=O)C(C)C)Oc1ccccc1)C(=O)OCCCCC` [Compound 38b, (2R,3R,4R,5R)-2-(4-aminopyrrolo[2,1-f][1,2,4]triazin-7-yl)-2-cyano-5-((((S)-(((S)-1,4-dipentyloxy-1,4-dioxobutan-2-yl)amino)(phenoxy)phosphoryl)oxy)methyl)tetrahydrofuran-3,4-diyl bis(2-methylpropionate)], the EC50 is below 100 nM. Same read-out and setting: to `CC(C)(C)C(=O)O[C@H]1[C@@H](OC(=O)C(C)(C)C)[C@](C#N)(c2ccc3c(N)ncnn23)O[C@@H]1CO[P@@](=O)(N[C@H](C=O)CC(=O)OC1(C2CCCC2)CCCC1)Oc1ccccc1` [Compound 61b, (2R,3R,4R,5R)-2-(4-aminopyrrolo[2,1-f][1,2,4]triazin-7-yl)-2-cyano-5-((((S)-(((S)-1,4-bicyclopentyloxy-1,4-dioxobutan-2-yl)amino)(phenoxy)phosphoryl)oxy)methyl)tetrahydrofuran-3,4-diyl bis(2,2-dimethylpropionate)] belongs 500 to 1000 nM.

The assay is the same for the next values; noted with them: read-out: RSV A2 (Hep-2 cell) EC50; HEp-2 cells, RSV A2 virus, 5 days, CCK8.
Turning to “(2R,3R,4R,5R)-2-(4-aminopyrrolo[2,1-f][1,2,4]triazin-7-yl)-2-cyano-5-((((S)-(((S)-1,4-dicyclobutoxy-1,4-dioxobutan-2-yl)amino)(phenoxy)phosphoryl)oxy)methyl)tetrahydrofuran-3,4-diyl dipropionate [Compound 56b]”, the EC50 lay in the range of 100 to 200 nM. Same read-out and setting: the figure for “(2R,3R,4R,5R)-2-(4-aminopyrrolo[2,1-f][1,2,4]triazin-7-yl)-2-cyano-5-((((R)-(((S)-1,4-bicyclopentyloxy-1,4-dioxobutan-2-yl)amino)(phenoxy)phosphoryl)oxy)methyl)tetrahydrofuran-3,4-diyl dipropionate [Compound 59a]” is 200 to 500 nM; for “(2R,3R,4R,5R)-2-(4-aminopyrrolo[2,1-f][1,2,4]triazin-7-yl)-2-cyano-5-((((R)-(((S)-1,4-bicyclopentyloxy-1,4-dioxobutan-2-yl)amino)(phenoxy)phosphoryl)oxy)methyl)tetrahydrofuran-3,4-diyl diacetate [Compound 58a]” it is 200 to 500 nM; for “(2R,3R,4R,5R)-2-(4-aminopyrrolo[2,1-f][1,2,4]triazin-7-yl)-2-cyano-5-((((R)-(((S)-1,4-dicyclobutoxy-1,4-dioxobutan-2-yl)amino)(phenoxy)phosphoryl)oxy)methyl)tetrahydrofuran-3,4-diyl dipropionate [Compound 56a]” it is 200 to 500 nM.

For the compound “(2R,3R,4R,5R)-2-(4-aminopyrrolo[2,1-f][1,2,4]triazin-7-yl)-2-cyano-5-((((R)-(((S)-1-isopropoxy-1-oxopropan-2-yl)amino)(((isopropoxycarbonyl)oxy)methoxy)phosphoryl)oxy)methyl)tetrahydrofuran-3,4-diyl diacetate [Compound 1a]”, the EC50 lay in the range of 100 to 200 nM. For the compound `CCC(CC)COC(=O)[C@H](Cc1ccccc1)N[P@](=O)(OC[C@H]1O[C@@](C#N)(c2ccc3c(N)ncnn23)[C@H](OC(=O)C(C)C)[C@@H]1OC(=O)C(C)C)Oc1ccc(C(C)(C)C)cc1` [Compound 53b, (2R,3R,4R,5R)-2-(4-aminopyrrolo[2,1-f][1,2,4]triazin-7-yl)-2-cyano-5-((((((S)-1-(2-ethylbutoxy)-1-oxo-3-phenylpropan-2-yl)amino)((S)-4-tert-butylphenoxy)phosphoryl)oxy)methyl)tetrahydrofuran-3,4-diyl bis(2-methylpropionate)], the half-maximal effective concentration (EC50) was below 100 nM.

The record behind these values is patent publication EP4617278A1, “NUCLEOTIDE ANALOG, AND COMPOSITION AND USE THEREOF” (priority 2022, dated 2024).
